The test system of one assay is TlpALBD. Briefly: Small-molecule ligand binding array. Also: key: + for positive binding; +/− for intermediate binding; − for no binding. Set-up: species or system Helicobacter pylori SS1. The note with it: ligand binding array screen; n = 3. How it is done:
Small-molecule arrays were prepared and performed as previously described ([57]). Briefly, 1 μg of purified TlpALBD in phosphate-buffered saline (PBS) (pH 7.2) was incubated with a molar concentration ratio (4:2:1) of anti-His antibody (Cell Signaling), followed by incubation with a secondary antibody (Thermo Scientific) for signal amplification. The protein-antibody mix was added to an Arrayit Superepoxy III glass substrate array blocked with PBS (pH 7.2) with 1% bovine serum albumin. […] Unbound protein was washed away with PBS with 0.05% Tween. […] Three biological replicates were performed, with a total of 12 data points for each glycan tested. Binding was classified as positive for a ligand if the relative fluorescence unit value was >1-fold above the mean background (defined as the average background of negative-control spots plus 3 standard deviations [SD]) and was statistically significant (P < 0.005 by Student’s t test). Small-molecule array slide preparation and analysis were done according to MIRAGE guidelines ([58]) (outlined in Table S5).
Classification Guidelines
1. Sample: Glycan Binding Sample
Origin: Helico bact er pyl ori SS1; produce d as a reco mbinant His -tagged protein in E.
The preparation of TlpA is exp lained in the Materials and Methods se ct ion: TlpA co nst ruct desi gn and protein purifica tion.
Sample Sample is a His Tagged protein co ntaining only the periplasm ic rece ptor domain, amino […]
Please see Materials and Methods: Li ga nd bi ndi ng arra y.
Proteins were co mplexe d with mouse anti-his antibody, with se co ndary and tertiary Alexa Fluor555 antibodies (rabbit anti-mouse , goat anti-rabbit) at a molar ratio of 4:2:1.
The protein/antibody co mplex was incu bated on ice for 10 mins prior to placi ng on the Assa y array. Arrays were performed with 1 µg of co mplexe d protein incu bated on the array for protoco l 20 min. Arrays were then wash ed 3 times in Array PBS (PBS + 2 mM MgCl2 + 2 mM CaCl2) then dried by ce ntrifugation for 3 min at 300 x g. Sca nning was performed usi ng an Innopsys InnoSca n 1100AL and analyze d usi ng Mapix (Innopsy s). Yes/ no binding was determined by si x posi tive replica te sp ots in three replica te exp eriments. […]
2.2 Small molecule Library […]
descr iption for Compounds printed in the amino aci d/small molecu le array for this st udy are list ed in […]
5.2 Small molecule array with “Map”
The array co nsi sts of triplica te su b-arrays of amino aci ds and sm all moleucl es (24 rows x 10 co lumns) with 400μm sp ot sp aci ng (ce ntre to ce ntre) with a minimum sp ot si ze of 100μm . Each sa mple is printed si x times, with each of the 3 su b-arrays incl uding at least Array layo ut si x negative co ntrol sa mples (print so lution only) and a posi tive co ntrol sa mples […]
Posi tive co ntrols provi de proof of su cce ssf ul immobiliza tion of the amine reagents and provi des for orientation for analysi s.
Sample Arrays are quality co ntrolled by a range of measu res. 1. Each printed array is post print identifica tion sca nned to co nfirm deposi tion of the sa mples on the array su rface prior to neutraliza tion and quality of the remaining sl ide su rface . 2. Post neutralize d sl ides are sca nned again to monitor co ntrol for remaining autofluoresce nce .
1. 6. Detector and Data Processing
Sca nning reso lution: […]
Sca n powers: Low lase r power. […]
analysi s Innopsys MAPIX.

A further assay concerns H. pylori PMSS1 ΔtlpA. Briefly: Temporal chemotaxis assay (direction changes), ΔtlpA mutant. Type of assay: cell-based, Helicobacter pylori. The settings on record: ligands 0.1-10 mM, controls 50 μM dipyridyl, 10 mM HCl. How it is done: Cultures of H. pylori PMSS1 WT and ΔtlpA strains were grown overnight, back-diluted, and then incubated until an OD600 of 0.12 to 0.15 was reached. Cultures were treated with water (Mock) or various concentrations of compounds, as indicated. For panels C and E, the pH of cysteine, thiamine, malic acid, and α-ketoglutarate stocks was adjusted using NaOH to match the pH of the water used for the untreated control. The cells were immediately filmed, and direction changes were counted over a 3-s swimming period in at least 100 cells per treatment from 3 biological replicates. Data are normalized to the values for the untreated control for each strain, as described in Materials and Methods. Error bars represent the standard errors of the means. *, P < 0.05; **, P < 0.01; ***, P < 0.001 (comparisons to the untreated control per strain using two-way ANOVA with Dunnett’s multiple-comparison test).
To determine if chemoattractant responses toward arginine, fumarate, and cysteine were TlpA dependent, the same tracking experiments were repeated with a mutant lacking tlpA (ΔtlpA).
Swimming behavior assays were done with H. pylori PMSS1 strains grown in BB10 as described above. Cultures grown overnight were diluted to an optical density at 600 nm (OD600) of 0.1 in fresh BB10 and then incubated with shaking as described above until an OD600 of 0.12 to 0.15 was reached. […] The number of direction changes in a bacterial swimming trajectory was enumerated over a 3-s interval to determine whether each putative ligand is sensed as an attractant or repellent or elicits no response ([20], [25][–][30]). […] Each control is sensed by chemoreceptors other than TlpA ([24], [25], [29], [31]). The pH of BB10 upon treatment was independently assessed using a Denver Instruments pH meter. Prior to realizing that chemotactic responses may be due to medium acidification, we resuspended all ligands in pure water. Therefore, to be able to compare the results to those of previous experiments, we continued resuspending acidified ligands in pure water and then adjusting the pH of the resuspended ligand using NaOH. Cultures were filmed immediately after ligand addition at a ×400 magnification using a Hamamatsu C4742-95 digital camera with μManager software (version 1.4.22), mounted on a Nikon Eclipse E600 phase-contrast microscope. For the competition chemotaxis assay, cultures of H. pylori and ligands were prepared as described above. However, 1 min after the addition of a nonchemoactive ligand at a final concentration of 10 mM, a chemoactive ligand was added at a final concentration of 10 mM, and the cultures were then filmed as described above. Videos were relabeled to blind the observer to the strain identity. For each sample, >100 3-s-long bacterial tracks from three independent cultures were analyzed manually to identify stops followed by direction changes. Data for all biological replicates under each condition were combined, and the average number of direction changes in 3 s and the standard error of the mean were calculated. For each strain, data were normalized to the values for the untreated control under each experimental condition. Statistical analysis of the data for treated versus untreated samples was performed using two-way analysis of variance (ANOVA) and Dunnett’s multiple-comparison test.

Where a name gives a salt, the structure may show the parent alone.

As to `N[C@H]1C(O)O[C@H](CO)[C@@H](O)[C@@H]1O` (stereo partly drawn) [Glucosamine, D(+)-glucosamine hydrochloride], the Array result with TlpALBD is listed as “+”. As to `N=C(N)NCCC[C@H](N)C(=O)O` [Arginine, L-arginine monohydrochloride], the Array result with TlpALBD was “+”. For the same compound, in the assay on H. pylori PMSS1 ΔtlpA, the “Chemotactic response of ΔtlpA mutant” value is given as “failed to exhibit a chemotactic response”. On the same counts, the results for `N[C@@H](CS)C(=O)O` [Cysteine, L-cysteine hydrochloride monohydrate] are “+/−” and “failed to exhibit a chemotactic response”. For `O=C(O)/C=C/C(=O)O` [Fumarate, sodium fumarate], the Array result with TlpALBD was “+”. In addition, in the assay with H. pylori PMSS1 ΔtlpA, the “Chemotactic response of ΔtlpA mutant” value is recorded as “failed to exhibit a chemotactic response”. `Cc1ncc(C[n+]2csc(CCO)c2C)c(N)n1` [Thiamine, thiamine hydrochloride]: in the assay with TlpALBD, the Array result is on record as “+/−”. Regarding `O=C(O)C[C@H](O)C(=O)O` [Malic acid, L-malic acid], the Array result in the assay on TlpALBD is reported as “+/−”.
